Measurements: PMC6487966, “Streptococcal dTDP‐L‐rhamnose biosynthesis enzymes: functional characterization and lead compound identification” (Molecular Microbiology, 2019)

Experiments:
Assay in all cases: bio-layer interferometry, dilution series on biotinylated recombinant enzyme
Assay type in all cases: binding
[1] = biological target: T1, RmlB (dTDP‐glucose‐4,6‐dehydratase) (Streptococcus pyogenes, UniProt Q9A045)
T1 construct: gene cpsFQ

[2] = biological target: T2, RmlC (dTDP‐4‐keto‐6‐deoxyglucose‐3,5‐epimerase) (Streptococcus pyogenes, UniProt Q5XCG7)
T2 construct: gene rfbC
T2 sequence (Q5XCG7 whole entry): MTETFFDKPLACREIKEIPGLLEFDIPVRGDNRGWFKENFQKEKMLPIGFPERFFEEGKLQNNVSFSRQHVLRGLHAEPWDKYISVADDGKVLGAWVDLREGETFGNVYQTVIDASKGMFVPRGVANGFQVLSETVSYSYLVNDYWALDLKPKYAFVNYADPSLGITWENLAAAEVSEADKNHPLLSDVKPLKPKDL

[3] = biological target: GacA (RmlD, dTDP‐4‐dehydrorhamnose reductase) (Streptococcus pyogenes, UniProt Q9A0G6)
Sequence of GacA (RmlD, dTDP‐4‐dehydrorhamnose reductase) (Q9A0G6 entry or part of it): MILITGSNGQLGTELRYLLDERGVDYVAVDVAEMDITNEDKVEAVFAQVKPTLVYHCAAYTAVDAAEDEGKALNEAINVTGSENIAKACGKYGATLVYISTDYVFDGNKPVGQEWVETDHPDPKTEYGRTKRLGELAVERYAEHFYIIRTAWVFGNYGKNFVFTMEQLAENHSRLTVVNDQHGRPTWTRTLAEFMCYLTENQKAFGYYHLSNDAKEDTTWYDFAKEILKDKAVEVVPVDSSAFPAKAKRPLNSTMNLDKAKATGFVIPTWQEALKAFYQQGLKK

T1 sequence (Q9A045 entry or part of it): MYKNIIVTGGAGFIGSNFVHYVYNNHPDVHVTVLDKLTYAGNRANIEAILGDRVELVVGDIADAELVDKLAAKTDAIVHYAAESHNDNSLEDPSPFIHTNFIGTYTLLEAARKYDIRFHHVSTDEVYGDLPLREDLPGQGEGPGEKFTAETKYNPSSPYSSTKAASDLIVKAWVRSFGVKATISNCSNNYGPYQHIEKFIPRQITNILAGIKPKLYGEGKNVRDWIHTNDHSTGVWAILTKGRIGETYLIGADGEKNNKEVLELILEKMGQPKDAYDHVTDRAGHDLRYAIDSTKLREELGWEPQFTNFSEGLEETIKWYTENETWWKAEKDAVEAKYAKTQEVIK

`O=C(O)c1ccc(-c2ccc(Cl)cc2)o1` [Ri03, 5‐(4‐chlorophenyl)‐2‐furoic acid] was tested, and the Kd [1] was 200 µM, the Kd [2] was ~3000 µM and the Kd [3] was 300 µM.
